Experimental findings from US20230124969A1, “OPHTHALMIC FORMULATION COMPRISING N-[5-(AMINOSULFONYL)-4-METHYL-1,3- THIAZOL-2-YL]-N-METHYL-2-[4-(2-PYRIDINYL)PHENYL]ACETAMIDE HEMIHYDRATE” (AiCuris GmbH & Co. KG, priority 2020, published 2023) are described below.

Where two headings read alike, the source gives them in different places.

Holding throughout (format): physicochemical
Data set [1] is described as follows: In-use stability of ophthalmic formulations stored at room temperature and 2-8 °C. The protocol: To study the in-use stability over 5 weeks at room temperature (RT) and at a temperature in the range of from 2° C. - 8° C., stock solutions with a concentration of 1.0 mg/mL of DS were prepared in PEG200 and in PEG400. The different stock solutions were diluted in 3 different compositions of artificial tears to a final concentration of 0.05 mg DS per mL ophthalmic formulation.
An amount of 1.5 mL stock solution was diluted with 28.5 mL of the respective artificial tears solution (either GenTeal® Tears or Thera® Tears or Visine® tears) in a beaker and stirred for 2 min with a magnet stirrer. The pH value was determined and samples were taken before and after sterile filtration. The solutions were filtered through CA (cellulose acetate) 0.22 µm filter system. The content of the beaker was withdrawn and respectively 14 mL of the prepared formulation were added to two empty 50 mL tubes. In addition, one empty 2 mL tube was provided and 1.5 mL of the prepared formulation was added to the 2 mL tube. The samples were stored at RT and at a temperature in the range of from 2-8° C. over 5 weeks. […]
To study the impact of the pH value on the tendency of the ophthalmic formulation to degrade and precipitate 3 different compositions of artificial tears were adjusted to pH 4.0, 5.0 and 6.0. A stock solution of Pritelivir free base hemihydrate in PEG400 at a concentration of 1.0 mg/mL was prepared. The stock solutions were diluted in the pH adjusted artificial tears at a Pritelivir free base hemihydrate concentration of 0.05 mg/mL and filtered through a RC 0.2 µm sterile filter. It turned out to be preferable to carry out the dilution step for each sample one after the other to keep the time before the filtration step short.
All samples were prepared as triplicates. One sample was prepared after the other to keep the preparation time short and to minimize the risk of precipitation. The stock solution was diluted with pH adjusted artificial tears solution in a tube and gently mixed. A sample was taken to determine the final concentration. An amount of 20 mL of the tube was withdrawn with a 20 mL syringe. Then, the syringe was connected to the RC […] filter via Luer Lok and the solution was filtered in two portions of 10 mL each into two 50 mL tube. Another sample was taken to determine the final concentration after filtration.
The samples were stored at room temperature and at a temperature in the range of from 2° C.-8° C. over 4 weeks.
To determine an acceptable pH value for ophthalmic use, a stock solution of Pritelivir free base hemihydrate in PEG400 was prepared at a concentration 1.0 mg/mL. […]
(§1) The amount of hydrochloric acid was added as determined in the pre-testing to adjust the pH to 6.0 and a sample was taken to determine the final concentration before filtration. […]

Data set [2] can be described thus: Sterile filtration / filter compatibility: HPLC assay before and after filtration. The following applies: for assay data before and after filtration: Example 3, 0.05 mg/mL DS, PEG200 stock diluted in GenTeal tears. The protocol: • Dilute 500 µL of each sample with 500 µL ACN/MeOH/H2O ratio 25:25:50 + 1% HAc (1:2) • Mix it 5 s by vortexing
• Dilute 250 µL of each sample with 730 µL ACN/MeOH/H2O ratio 25:25:50 + 1% HAc and add 20 µL ACN/DMSO 4:1 (1:4) • Mix it 5 s by vortexing
An amount of 1.5 mL stock solution was diluted with 28.5 mL of the respective artificial tears solution (either GenTeal® Tears or Thera® Tears or Visine® tears) in a beaker and stirred for 2 min with a magnet stirrer. The pH value was determined and samples were taken before and after sterile filtration. The solutions were filtered through CA (cellulose acetate) 0.22 µm filter system. The content of the beaker was withdrawn and respectively 14 mL of the prepared formulation were added to two empty 50 mL tubes. In addition, one empty 2 mL tube was provided and 1.5 mL of the prepared formulation was added to the 2 mL tube. The samples were stored at RT and at a temperature in the range of from 2-8° C. over 5 weeks.
The testing was repeated one time to have samples in duplicate (n=2). An amount of 6 mL of the ophthalmic formulation was withdrawn with a 10 mL syringe. An amount of 1 mL was used to determine the final concentration before filtration. The syringe was connected with a PA 0.2 µm filter via Luer Lok and the solution was filtered. Another sample was taken to determine the final concentration after filtration.
The filter was then disconnected from the syringe and an amount of 3 mL DMSO was withdrawn with the used 10 mL syringe. Then, the syringe was shaken smoothly. An amount of 1 mL was used to determine the final concentration after rinsing. The syringe was again connected to the used PA 0.2 µm filter via Luer Lok the DMSO was filtered. A sample was taken to determine the final concentration after washing.
This protocol was repeated for all tested filters: PA / Nylon, PALE / Nylon, PTFE, PVDF, CM, CA, RC, PP, PES. Each filter contained a filter material with a pore size of 0.2 µm and of 0.45 µm.
The testing was repeated to have samples in triplicate (n=3). An amount of 6 mL of the ophthalmic formulation was withdrawn with a 10 mL syringe. An amount of 1 mL was used to determine the final concentration before filtration. The syringe was connected with the filter via Luer Lok and the solution was filtered. Another sample was taken to determine the final concentration after filtration.
The filter was disconnected from the syringe and an amount of 2 mL DMSO was withdrawn with a fresh 10 mL syringe. The syringe was again connected to the used filter via Luer Lok and the DMSO was filtered. […]
as §1

Data set [3] is described as follows: Pre-test: PEG 200 stock solutions diluted in GenTeal Tears, visual check for precipitation (Example 1). The following applies: stock solution in PEG 200 diluted with GenTeal tears, visual inspection. The protocol: In order to prepare the new ophthalmic formulation the drug substance concentrations of both i) stock solution and ii) drug product which is administered to the patient need to be determined. For that propose, a stock solution with different concentrations of Pritelivir free base hemihydrate in PEG 200 was diluted in GenTeal® tears and the precipitation was checked over time. All liquids and the DS were equilibrated to ≥ 20° C. Seven 10 mL tubes were provided. In each of these tubes, 5 ml of PEG 200 were added and the required amount of DS was dissolved therein to provide the following stock solutions: 30 mg/mL, 25 mg/mL, 20 mg/mL, 10 mg/mL, 5 mg/mL, 1 mg/mL, 0.05 mg/mL. The solutions were mixed by vortexing the tubes for 5 s and the tubes were shaken until the DS was dissolved. The stock solutions were diluted with GenTeal® tears and the pH value was measured. After that the samples were checked for precipitation by visual inspection.

Data set [4] is described as follows: Preparation of 1 mg/mL PEG400 stock solution and ophthalmic formulation with different drug substances (experiments 8-10). The conditions noted are these: for suitability as drug substance for preparation of the ophthalmic formulation: three tested drug substances, experiments 1-10. The protocol: All liquids and the DS were equilibrated to ≥ 20° C. An amount of 20 ml of PEG 400 was added to a 50 mL tube and 20 mg of DS were dissolved therein. The solution was mixed by vortexing the tube for 5 s and the tube was shaken until the DS was dissolved.
To study whether Pritelivir free base hemihydrate can be replaced with Pritelivir mesylate, Experiment 8 was repeated with Pritelivir mesylate monohydrate as DS.
The preparation protocol of Example 8 was followed also for the ophthalmic formulation containing Pritelivir mesylate monohydrate as drug substance.
To study whether Pritelivir free base hemihydrate can be replaced with Pritelivir maleate, Experiment 8 was repeated with Pritelivir maleate as DS.

With `Cc1nc(N(C)C(=O)Cc2ccc(-c3ccccn3)cc2)sc1S(N)(=O)=O` [Pritelivir free base hemihydrate, N-[5-(aminosulfonyl)-4-methyl-1,3-thiazol-2-yl]-N-methyl-2-[4-(2-pyridinyl)phenyl]acetamide hemihydrate], the impurities on storage entry in data set [1] (Example 6, PEG400 stock diluted with GenTeal Tears, 0.05 mg/mL, after 1 week at room temperature) is given as “increase of impurities”. In addition, the “time over which samples were stable” value in data set [1] (Example 6, PEG400 stock diluted with GenTeal Tears, 0.05 mg/mL, stored at 2-8° C.) was 1 week. The “stability in most artificial tears solutions” value in data set [1] (pH 4.0) was “not stable”. The “stability for an ophthalmic formulation” value in data set [1] (pH between 6.0 and 7.0, formulation contains glycerin, hypromellose and polyethylene glycol 400) is on record as “sufficiently stable”. The “assay data before and after filtration” value in data set [2] (filter material PFTE 0.2 µm) and in data set [2] (filter material RC 0.2 µm) was “identical values” each time. In addition, the “assay content before and after filtration” value in data set [2] (Example 6, 1 mg/mL PEG400 stock diluted with GenTeal Tears to 0.05 mg/mL, RC 0.2 µm filter, six samples) is “comparable”. The “drug load of ophthalmic formulation obtainable without any visually detectable precipitation” value in data set [3] is on record as 24 mg/mL. Besides, the “suitability as drug substance for preparation of the ophthalmic formulation” value (shortened to “suitability as drug substance”) in data set [4] is “suitable”.
As for “N-[5-(amino-sulfonyl)-4-methyl-1,3-thiazol-2-yl]-N-methyl-2-[4-(2-pyridinyl)phenyl] acetamide mesylate monohydrate [Pritelvir mesylate monohydrate]”, the “assay level after filtration” value in data set [2] (Comparative Example 1, protocol of Example 8, RC 0.2 µm filter) is given as “decreased significantly”. For the same compound, in data set [4], the “solubility in PEG400 / preparation of stock solution” value is reported as “not soluble”; the “suitability as drug substance” value was “insolubility and precipitation problems”. Besides, the precipitation entry in data set [4] (Comparative Example 1, protocol of Example 8 (PEG400, Visine Tears, 0.1 M HCl)) is listed as “Precipitation was observed”.
In the case of `Cc1nc(N(C)C(=O)Cc2ccc(-c3ccccn3)cc2)sc1S(N)(=O)=O.O=C(O)/C=C\C(=O)O` [Pritelivir maleate, N-[5-(aminosulfonyl)-4-methyl-1,3-thiazol-2-yl]-N-methyl-2-[4-(2-pyridinyl)phenyl]acetamide maleate], the “solubility in PEG400 / preparation of stock solution” value in data set [4] (at a concentration of 1 mg/mL) is recorded as “not possible”. The “suitability as drug substance” value in data set [4] is “insolubility and precipitation problems”.
